Data published in article PMC6366416, “Synthesis and in vitro anticancer activity of certain novel 1-(2-methyl-6-arylpyridin-3-yl)-3-phenylureas as apoptosis-inducing agents” (Journal of Enzyme Inhibition and Medicinal Chemistry, 2019).

Key:
HCT-116 cell line = test: MTT anti-proliferative assay; format: cell-based; settings: Homo sapiens, 48 h of incubation, mean ± SD of three experiments
Procedure: (§1) A549 (non-small cell lung cancer cell line) and HCT-116 (human colon cancer cell line), were obtained from American Type Culture Collection (Manassas, VA, USA). The cells were maintained in Dulbecco’s Modified Eagle’s Medium (DMEM) (Sigma-Aldrich, St. Louis, MO), and supplemented with 10% heat-inactivated FBS (Hyclone), 10 μg/mL of insulin (Manufacturer, Sigma, St. Louis, MO, USA), and 1% penicillin-streptomycin. MTT assay[29] was adopted to assess the in vitro antitumor activity of the newly synthesized pyridines 5a–l according to the reported procedures, using Doxorubicin as a standard treatment. Experimental conditions were tested using three replicates (three wells of the 96-well plate per experimental condition) and all experiments were carried out in triplicates. IC50 values were calculated by the use of the equation for Boltzman sigmoidal concentration–response curve using the nonlinear regression fitting models by Graph Pad, Prism version 5 (GraphPad Software Inc., La Jolla, CA).
(§2) All newly synthesized pyridines 5a–l were examined for their anti-proliferative activity towards two cancer cell lines: non-small cell lung cancer A549 cell line and colon cancer HCT-116 cell line. The MTT colorimetric assay was adopted to assess the anti-proliferative activity as described by Mosmann[29]. Doxorubicin was used as a control in this assay.

A549 cell line = test: MTT anti-proliferative assay; format: cell-based; settings: Homo sapiens, 48 h of incubation, mean ± SD of three experiments
Procedure: as §1, §2

WI-38 cell line = test: MTT cytotoxicity towards non-tumorigenic cells; format: cell-based, human; settings: for IC50: WI-38, MTT, non-tumorigenic human lung fibroblast, mean ± SD of three experiments; for S. I. WI-38/A549: selectivity index, IC50 WI-38 / IC50 A549
Procedure: The cytotoxic activity of all synthesized pyridines 5a–l were assessed against non-tumorigenic human lung fibroblast WI-38 cell line to investigate their safety, using the MTT colorimetric assay.

IC50 (HCT-116 cell line) | IC50 (A549 cell line) | melting point | SMILES | IC50 (WI-38 cell line) | S. I. WI-38/A549 (WI-38 cell line)
16.4 ± 1.3 µM | 19.2 ± 2.05 µM | 239 to 241 °C | Cc1nc(-c2cccs2)ccc1NC(=O)Nc1ccc2c(c1)OCO2 [Compound 5k, 1-(Benzo[d][1, 3]dioxol-5-yl)-3-(2-methyl-6-(thiophen-2-yl)pyridin-3-yl)urea] | 139 ± 10.4 µM | 7.2
3.1 ± 0.22 µM | 2.93 ± 0.28 µM | – | COc1cccc2c1C(=O)c1c(O)c3c(c(O)c1C2=O)C[C@@](O)(C(=O)CO)C[C@@H]3O[C@H]1C[C@H](N)[C@H](O)[C@H](C)O1 [Doxorubicin, reference compound] | – | –
16 ± 1.52 µM | 24.1 ± 1.78 µM | 235 to 237 °C | Cc1nc(-c2ccc(F)cc2)ccc1NC(=O)Nc1cc(C(F)(F)F)cc(C(F)(F)F)c1 [Compound 5b, 1-(3,5-Bis(trifluoromethyl)phenyl)-3-(6-(4-fluorophenyl)-2-methylpyridin-3-yl)urea] | 151 ± 8.12 µM | 6.3
